Values of other authors, collected in US20060069075A1, “Methods for treating dry eye” (priority 2001, published 2006).

Tested on: human conjunctival epithelial cells
Details: background statement, no data given

CCCCC[C@H](O)/C=C/C=C\C/C=C\C/C=C\CCCC(=O)O [15-HETE]
secretion of mucin-1 (MUC-1): increase the secretion of mucin-1 (MUC-1)
